Test results: patent publication US9090628B2, “Benzoxazepin compounds selective for PI3K P110 delta and methods of use” (GENENTECH, INC., priority 2011, dated 2015)

What was measured:
p110 alpha = p110 alpha (Homo sapiens (Human), UniProt P42336); experiment: PI3K isoform inhibition assay, p110 alpha (for alpha/delta selectivity); settings: ratio of biochemical IC50 values
Procedure, shortened: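 Fluorescence polarization displacement of a fluorescent PIP3 probe from GRP-1 detector by PI3K-formed PIP3; p110α/p85α at 40 ng/mL with 10 μM PIP2 substrate.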

p110 delta = p110 delta (Homo sapiens (Human), UniProt O00329); experiment: PI3K isoform inhibition assay, p110 delta (fluorescence polarization displacement); format: biochemical
Chain of p110 delta (O00329 whole entry, canonical isoform): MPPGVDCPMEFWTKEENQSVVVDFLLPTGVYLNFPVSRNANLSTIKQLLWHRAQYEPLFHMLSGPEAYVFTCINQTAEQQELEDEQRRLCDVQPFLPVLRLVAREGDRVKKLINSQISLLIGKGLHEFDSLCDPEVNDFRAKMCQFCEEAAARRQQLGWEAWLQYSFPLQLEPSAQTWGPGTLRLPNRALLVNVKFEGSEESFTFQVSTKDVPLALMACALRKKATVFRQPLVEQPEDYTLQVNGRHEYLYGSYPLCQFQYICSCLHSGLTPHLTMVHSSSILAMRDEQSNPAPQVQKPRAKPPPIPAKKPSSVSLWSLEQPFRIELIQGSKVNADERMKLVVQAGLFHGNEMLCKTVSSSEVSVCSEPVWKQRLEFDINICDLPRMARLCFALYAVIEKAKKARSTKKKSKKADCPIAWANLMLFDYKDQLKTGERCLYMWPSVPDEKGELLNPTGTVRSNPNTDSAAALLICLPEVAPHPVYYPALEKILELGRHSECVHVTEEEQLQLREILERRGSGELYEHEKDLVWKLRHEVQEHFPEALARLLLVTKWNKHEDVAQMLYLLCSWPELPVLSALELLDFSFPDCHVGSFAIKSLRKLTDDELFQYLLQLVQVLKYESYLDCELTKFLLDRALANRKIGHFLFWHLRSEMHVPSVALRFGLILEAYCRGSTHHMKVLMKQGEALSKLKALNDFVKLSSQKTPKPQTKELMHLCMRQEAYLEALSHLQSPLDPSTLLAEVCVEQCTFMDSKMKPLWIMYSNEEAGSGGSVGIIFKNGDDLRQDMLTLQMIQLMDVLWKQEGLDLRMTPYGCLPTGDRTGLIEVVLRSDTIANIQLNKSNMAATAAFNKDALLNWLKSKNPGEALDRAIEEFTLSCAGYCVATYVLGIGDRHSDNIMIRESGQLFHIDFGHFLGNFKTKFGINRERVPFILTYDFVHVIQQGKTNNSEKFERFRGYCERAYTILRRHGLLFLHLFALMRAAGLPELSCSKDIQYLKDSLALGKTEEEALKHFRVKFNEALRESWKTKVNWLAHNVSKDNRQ
Chain of p110 delta (P27986 whole entry partner, canonical isoform): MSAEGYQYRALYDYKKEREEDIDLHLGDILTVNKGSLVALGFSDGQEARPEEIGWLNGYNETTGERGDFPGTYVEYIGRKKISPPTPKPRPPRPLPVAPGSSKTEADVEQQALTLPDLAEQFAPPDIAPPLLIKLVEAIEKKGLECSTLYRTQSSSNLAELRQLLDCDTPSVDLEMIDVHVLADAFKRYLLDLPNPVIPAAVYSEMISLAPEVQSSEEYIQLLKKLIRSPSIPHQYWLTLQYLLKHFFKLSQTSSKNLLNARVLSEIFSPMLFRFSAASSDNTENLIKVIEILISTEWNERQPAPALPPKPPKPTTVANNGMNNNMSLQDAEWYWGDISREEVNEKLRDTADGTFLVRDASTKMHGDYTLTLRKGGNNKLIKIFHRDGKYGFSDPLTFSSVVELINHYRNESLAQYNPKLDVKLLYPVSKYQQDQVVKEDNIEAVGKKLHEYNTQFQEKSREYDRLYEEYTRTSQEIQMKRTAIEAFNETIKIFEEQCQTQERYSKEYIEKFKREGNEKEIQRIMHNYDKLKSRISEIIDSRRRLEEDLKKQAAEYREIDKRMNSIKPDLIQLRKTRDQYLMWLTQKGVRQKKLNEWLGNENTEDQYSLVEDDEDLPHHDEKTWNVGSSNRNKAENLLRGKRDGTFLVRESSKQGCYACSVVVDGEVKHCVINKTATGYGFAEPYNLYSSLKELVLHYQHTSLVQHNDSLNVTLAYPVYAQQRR

Chain of p110 alpha (P42336 whole entry, canonical isoform): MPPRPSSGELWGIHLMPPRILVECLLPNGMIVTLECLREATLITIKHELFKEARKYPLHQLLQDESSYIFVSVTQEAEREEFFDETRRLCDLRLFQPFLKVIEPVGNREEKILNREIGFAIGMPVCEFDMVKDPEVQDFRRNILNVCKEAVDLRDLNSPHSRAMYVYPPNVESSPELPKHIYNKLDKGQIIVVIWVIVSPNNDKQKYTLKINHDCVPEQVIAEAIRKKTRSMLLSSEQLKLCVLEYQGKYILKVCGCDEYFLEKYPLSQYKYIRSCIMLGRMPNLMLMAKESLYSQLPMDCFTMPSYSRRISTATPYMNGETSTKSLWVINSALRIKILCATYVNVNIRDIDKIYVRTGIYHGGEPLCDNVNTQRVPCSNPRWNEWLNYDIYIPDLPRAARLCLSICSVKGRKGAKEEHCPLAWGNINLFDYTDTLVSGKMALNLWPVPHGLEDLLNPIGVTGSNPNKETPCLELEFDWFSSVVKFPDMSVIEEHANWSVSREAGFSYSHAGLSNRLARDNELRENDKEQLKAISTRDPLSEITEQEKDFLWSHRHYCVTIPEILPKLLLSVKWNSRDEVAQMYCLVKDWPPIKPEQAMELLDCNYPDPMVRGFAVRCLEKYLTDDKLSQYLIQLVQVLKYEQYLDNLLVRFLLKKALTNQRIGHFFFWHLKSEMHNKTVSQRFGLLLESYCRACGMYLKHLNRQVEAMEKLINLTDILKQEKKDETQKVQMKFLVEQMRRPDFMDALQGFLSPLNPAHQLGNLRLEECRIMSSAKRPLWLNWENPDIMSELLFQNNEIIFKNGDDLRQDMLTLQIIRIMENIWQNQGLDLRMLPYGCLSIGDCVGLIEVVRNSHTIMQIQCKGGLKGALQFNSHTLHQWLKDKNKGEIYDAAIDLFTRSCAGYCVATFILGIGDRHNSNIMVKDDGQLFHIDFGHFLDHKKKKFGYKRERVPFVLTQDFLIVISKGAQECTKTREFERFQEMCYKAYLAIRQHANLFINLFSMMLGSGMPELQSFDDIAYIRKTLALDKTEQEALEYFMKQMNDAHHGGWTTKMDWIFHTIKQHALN
Chain of p110 alpha (P27986 whole entry partner, canonical isoform): as the sequence (P27986 whole entry partner, canonical isoform) above

SMILES | IC50 p110 alpha/IC50 p110 delta (p110 alpha) | IC50 (p110 delta) [nM]
CC(C)n1nc(N)nc1-c1cn2c(n1)-c1ccc(-c3ccnn3C3CCN(C(C)(C)C)CC3)cc1OCC2 [Example 327, 5-[9-[2-(1-tert-butyl-4-piperidyl)pyrazol-3-yl]-5,6-dihydroimidazo[1,2-d][1,4]benzoxazepin-2-yl]-1-isopropyl-1,2,4-triazol-3-amine] | 20.8 | 3.89
Cc1nc(-c2cn3c(n2)-c2cc(C(C)N4CCN(C(C)(C)C)CC4)c(F)cc2OCC3)n(C(C)C)n1 (stereo not shown) [Example 328, 10-[1-(4-tert-butylpiperazin-1-yl)ethyl]-9-fluoro-2-(2-isopropyl-5-methyl-1,2,4-triazol-3-yl)-5,6-dihydroimidazo[1,2-d][1,4]benzoxazepine] | 109 | 2.29
Cc1nc(-c2cn3c(n2)-c2cc([C@@H](C)N4CCN(C(C)C)CC4)c(C)cc2OCC3)n(C(C)C)n1 [Example 331, (R)-2-(1-isopropyl-3-methyl-1H-1,2,4-triazol-5-yl)-10-(1-(4-isopropylpiperazin-1-yl)ethyl)-9-methyl-5,6-dihydrobenzo[f]imidazo[1,2-d][1,4]oxazepine] | 104 | 0.865
Cc1nc(-c2cn3c(n2)-c2cc([C@H](C)N4CCN(C(C)C)CC4)c(C)cc2OCC3)n(C(C)C)n1 [Example 332, (S)-2-(1-isopropyl-3-methyl-1H-1,2,4-triazol-5-yl)-10-(1-(4-isopropylpiperazin-1-yl)ethyl)-9-methyl-5,6-dihydrobenzo[f]imidazo[1,2-d][1,4]oxazepine] | 13 | 0.678
CCN(CC)C1CCOC(c2c(-c3ccc4c(c3)OCCn3cc(-c5nc(C)nn5C(C)C)nc3-4)cnn2C)C1 (stereo not shown) [Example 333, N,N-diethyl-2-[4-[2-(2-isopropyl-5-methyl-1,2,4-triazol-3-yl)-5,6-dihydroimidazo[1,2-d][1,4]benzoxazepin-9-yl]-2-methyl-pyrazol-3-yl]tetrahydropyran-4-amine] | 27.2 | 2.37
Cc1nc(-c2cn3c(n2)-c2cc([C@@H](C)N4CCN(CC(C)(C)O)CC4)c(F)cc2OCC3)n(C(C)C)n1 [Example 334, (R)-1-(4-(1-(9-fluoro-2-(1-isopropyl-3-methyl-1H-1,2,4-triazol-5-yl)-5,6-dihydrobenzo[f]imidazo[1,2-d][1,4]oxazepin-10-yl)ethyl)piperizan-1-yl)-2-methylpropan-2-ol] | 17.3 | 10.5
Cc1nc(-c2cn3c(n2)-c2ccc(-c4cnn(C)c4C4CC(N(C)C(C)C)CCO4)cc2OCC3)n(C(C)C)n1 (stereo not shown) [Example 335, N-isopropyl-2-[4-[2-(2-isopropyl-5-methyl-1,2,4-triazol-3-yl)-5,6-dihydroimidazo[1,2-d][1,4]benzoxazepin-9-yl]-2-methyl-pyrazol-3-yl]-N-methyl-tetrahydropyran-4-amine] | 96.5 | 2.27
Cc1nc(-c2cn3c(n2)-c2cc([C@H](C)N4CCN(CC(C)(C)O)CC4)c(F)cc2OCC3)n(C(C)C)n1 [Example 336, (S)-1-(4-(1-(9-fluoro-2-(1-isopropyl-3-methyl-1H-1,2,4-triazol-5-yl)-5,6-dihydrobenzo[f]imidazo[1,2-d][1,4]oxazepin-10-yl)ethyl)piperazin-1-yl)-2-methylpropan-2-ol] | 27 | 26.8
Cc1nc(-c2cn3c(n2)-c2ccc(N4CCCC45CCCN(C(C)C)C5)cc2OCC3)n(C(C)C)n1 (stereo not shown) [Example 337, 9-(7-isopropyl-1,7-diazaspiro[4.5]decan-1-yl)-2-(2-isopropyl-5-methyl-1,2,4-triazol-3-yl)-5,6-dihydroimidazo[1,2-d][1,4]benzoxazepine] | 47.9 | 1.52
Cc1nc(-c2cn3c(n2)-c2cc([C@@H](C)N4CCN(C(C)C)CC4)c(F)cc2OCC3)n(C(C)C)n1 [Example 338, (R)-9-fluoro-2-(1-isopropyl-3-methyl-1H-1,2,4-triazol-5-yl)-10-(1-(4-isopropylpiperazin-1-yl)ethyl)-5,6-dihydrobenzo[f]imidazo[1,2-d][1,4]oxazepine] | 114 | 1.48
CCN(CC)C1CCOC(c2c(-c3ccc4c(c3)OCCn3cc(-c5nc(C)nn5C(C)C)nc3-4)cnn2C)C1 (stereo not shown) [Example 339, N,N-diethyl-2-[4-[2-(2-isopropyl-5-methyl-1,2,4-triazol-3-yl)-5,6-dihydroimidazo[1,2-d][1,4]benzoxazepin-9-yl]-2-methyl-pyrazol-3-yl]tetrahydropyran-4-amine] | 61.5 | 1.07
Cc1nc(-c2cn3c(n2)-c2cc([C@H](C)N4CCN(C(C)C)CC4)c(F)cc2OCC3)n(C(C)C)n1 [Example 340, (S)-9-fluoro-2-(1-isopropyl-3-methyl-1H-1,2,4-triazol-5-yl)-10-(1-(4-isopropylpiperazin-1-yl)ethyl)-5,6-dihydrobenzo[f]imidazo[1,2-d][1,4]oxazepine] | 25.8 | 2.32
CCN(CC)C1CCOC(c2c(-c3ccc4c(c3)OCCn3cc(-c5nc(C)nn5C(C)C)nc3-4)cnn2C)C1 (stereo not shown) [Example 341, N,N-diethyl-2-[4-[2-(2-isopropyl-5-methyl-1,2,4-triazol-3-yl)-5,6-dihydroimidazo[1,2-d][1,4]benzoxazepin-9-yl]-2-methyl-pyrazol-3-yl]tetrahydropyran-4-amine] | 71.1 | 0.771
Cc1nc(-c2cn3c(n2)-c2ccc(N4CCC4[C@@H]4CCCN(C(C)C)C4)cc2OCC3)n(C(C)C)n1 (stereo partly drawn) [Example 342, 2-(1-isopropyl-3-methyl-1H-1,2,4-triazol-5-yl)-9-(2-((R)-1-isopropylpiperidin-3-yl)azetidin-1-yl)-5,6-dihydrobenzo[f]imidazo[1,2-d][1,4]oxazepine] | 21.3 | 0.16
Cc1nc(-c2cn3c(n2)-c2ccc(-c4cnn(C)c4C4CC(N(C)C(C)C)CCO4)cc2OCC3)n(C(C)C)n1 (stereo not shown) [Example 343, N-isopropyl-2-[4-[2-(2-isopropyl-5-methyl-1,2,4-triazol-3-yl)-5,6-dihydroimidazo[1,2-d][1,4]benzoxazepin-9-yl]-2-methyl-pyrazol-3-yl]-N-methyl-tetrahydropyran-4-amine] | 53 | 0.939
Cc1nc(-c2cn3c(n2)-c2ccc(-c4cnn(C)c4C4CC(N(C)C(C)C)CCO4)cc2OCC3)n(C(C)C)n1 (stereo not shown) [Example 344, N-isopropyl-2-[4-[2-(2-isopropyl-5-methyl-1,2,4-triazol-3-yl)-5,6-dihydroimidazo[1,2-d][1,4]benzoxazepin-9-yl]-2-methyl-pyrazol-3-yl]-N-methyl-tetrahydropyran-4-amine] | 66 | 1.23
Cc1nc(-c2cn3c(n2)-c2cc(C(C)N4CCN(C5COC5)CC4)c(C)cc2OCC3)n(C(C)C)n1 (stereo not shown) [Example 345, 2-(2-isopropyl-5-methyl-1,2,4-triazol-3-yl)-9-methyl-10-[1-[4-(oxetan-3-yl)piperazin-1-yl]ethyl]-5,6-dihydroimidazo[1,2-d][1,4]benzoxazepine] | 14.3 | 8.82
